Results published in US12077503B2, “Substituted cyclic amides and their use as herbicides” (FMC CORPORATION, priority 2015, dated 2024).

Legend:
Type in all cases: in vivo
corn (Zea mays) [1] = experiment: Test G Post-Emergence Protocol; conditions: Zea mays, post-emergence, 312 h; for plant injury at 15.625 g/ha: 15.625 g ai/ha, evaluated after 13 days (100=total damage to plant; 0=no damage to plant), read-out: Corn damage rating; for plant injury at 62.5 g/ha: 62.5 g ai/ha, read-out: Corn damage rating (100=total damage to plant; 0=no damage to plant); for plant injury at 62.5 g/ha / plant injury at 250 g/ha: evaluated after 13 days; for plant injury at 250 g/ha: 250 g ai/ha, read-out: damage to plant, Corn (100=total damage to plant; 0=no damage to plant)
Outline: (§1)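 Values are percent visual injury at 13 days after treatment (0 none, 100 total). Treatment was a post-emergence spray at 15.625, 62.5 or 250 g/ha on 8-day-old pot plants kept at 24/16 °C.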

[2] = tested on: ivy-leaved morning glory (Ipomoea hederacea); experiment: Test G Post-Emergence Protocol; conditions: Ipomoea, post-emergence, 312 h; for pest or weed control at 15.625 g/ha: 15.625 g ai/ha, evaluated after 13 days (100=total damage to plant; 0=no damage to plant), read-out: Morningglory, Ivy-leaved damage rating; for pest or weed control at 62.5 g/ha: 62.5 g ai/ha, read-out: Morningglory, Ivy-leaved damage rating (100=total damage to plant; 0=no damage to plant); for pest or weed control at 62.5 g/ha / pest or weed control at 250 g/ha: evaluated after 13 days; for pest or weed control at 250 g/ha: 250 g ai/ha, read-out: damage to plant, Morningglory, Ivy-leaved (100=total damage to plant; 0=no damage to plant)
Outline: as §1

[3] = tested on: redroot pigweed (Amaranthus retroflexus); experiment: Test G Post-Emergence Protocol; conditions: Amaranthus retroflexus, post-emergence, 312 h; for pest or weed control at 15.625 g/ha: 15.625 g ai/ha, evaluated after 13 days (100=total damage to plant; 0=no damage to plant), read-out: Pigweed, Redroot damage rating; for pest or weed control at 62.5 g/ha: 62.5 g ai/ha, read-out: Pigweed, Redroot damage rating (100=total damage to plant; 0=no damage to plant); for pest or weed control at 62.5 g/ha / pest or weed control at 250 g/ha: evaluated after 13 days; for pest or weed control at 250 g/ha: 250 g ai/ha, read-out: damage to plant, Pigweed, Redroot (100=total damage to plant; 0=no damage to plant)
Outline: as §1

[4] = tested on: barnyardgrass (Echinochloa crus-galli); experiment: Test G Post-Emergence Protocol; conditions: Echinochloa crus-galli, post-emergence, 312 h; for pest or weed control at 15.625 g/ha: 15.625 g ai/ha, evaluated after 13 days (100=total damage to plant; 0=no damage to plant), read-out: Barnyardgrass damage rating; for pest or weed control at 62.5 g/ha: 62.5 g ai/ha, read-out: Barnyardgrass damage rating (100=total damage to plant; 0=no damage to plant); for pest or weed control at 62.5 g/ha / pest or weed control at 250 g/ha: evaluated after 13 days; for pest or weed control at 250 g/ha: 250 g ai/ha, read-out: damage to plant, Barnyardgrass (100=total damage to plant; 0=no damage to plant)
Outline: as §1

[5] = tested on: velvetleaf (Abutilon theophrasti); experiment: Test G Post-Emergence Protocol; conditions: Abutilon theophrasti, post-emergence, 312 h; for pest or weed control at 15.625 g/ha: 15.625 g ai/ha, evaluated after 13 days (100=total damage to plant; 0=no damage to plant), read-out: Velvetleaf damage rating; for pest or weed control at 62.5 g/ha: 62.5 g ai/ha, read-out: Velvetleaf damage rating (100=total damage to plant; 0=no damage to plant); for pest or weed control at 62.5 g/ha / pest or weed control at 250 g/ha: evaluated after 13 days; for pest or weed control at 250 g/ha: 250 g ai/ha, read-out: damage to plant, Velvetleaf (100=total damage to plant; 0=no damage to plant)
Outline: as §1

[6] = tested on: giant foxtail (Setaria faberi); experiment: Test G Post-Emergence Protocol; conditions: Setaria faberi, post-emergence, 312 h; for pest or weed control at 15.625 g/ha: 15.625 g ai/ha, evaluated after 13 days (100=total damage to plant; 0=no damage to plant), read-out: Foxtail, Giant damage rating; for pest or weed control at 62.5 g/ha: 62.5 g ai/ha, read-out: Foxtail, Giant damage rating (100=total damage to plant; 0=no damage to plant); for pest or weed control at 62.5 g/ha / pest or weed control at 250 g/ha: evaluated after 13 days; for pest or weed control at 250 g/ha: 250 g ai/ha, read-out: damage to plant, Foxtail, Giant (100=total damage to plant; 0=no damage to plant)
Outline: as §1

corn (Zea mays) [7] = experiment: Test G Pre-Emergence Protocol; conditions: Zea mays, pre-emergence, 312 h, evaluated after 13 days; for plant injury at 15.625 g/ha: 15.625 g ai/ha; for plant injury at 15.625 g/ha / plant injury at 250 g/ha: read-out: Corn damage rating (100=total damage to plant; 0=no damage to plant); for plant injury at 62.5 g/ha: 62.5 g ai/ha, 100=total damage to plant, 0=no damage to plant, read-out: plant damage rating, Corn; for plant injury at 250 g/ha: 250 g ai/ha
Outline: (§2)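 Spraying took place one day after sowing, at 15.625, 62.5 or 250 g/ha, using an acetone/water (50:50) spray solution containing 0.5% Tween 20. Plants were kept under glasshouse conditions (24/16 °C, 14 h light, 65% humidity, watered twice daily), and injury was rated 0–100 at day 13.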

[8] = tested on: ivy-leaved morning glory (Ipomoea hederacea); experiment: Test G Pre-Emergence Protocol; conditions: Ipomoea, pre-emergence, 312 h, evaluated after 13 days; for pest or weed control at 15.625 g/ha: 15.625 g ai/ha, read-out: Morning-glory, Ivy-leaved damage rating (100=total damage to plant; 0=no damage to plant); for pest or weed control at 62.5 g/ha: 62.5 g ai/ha, 100=total damage to plant, 0=no damage to plant, read-out: plant damage rating, Morningglory, Ivy-leaved; for pest or weed control at 250 g/ha: 250 g ai/ha, read-out: Morningglory, Ivy-leaved damage rating (100=total damage to plant; 0=no damage to plant)
Outline: as §2

[9] = tested on: redroot pigweed (Amaranthus retroflexus); experiment: Test G Pre-Emergence Protocol; conditions: Amaranthus retroflexus, pre-emergence, 312 h, evaluated after 13 days; for pest or weed control at 15.625 g/ha: 15.625 g ai/ha; for pest or weed control at 15.625 g/ha / pest or weed control at 250 g/ha: read-out: Pigweed, Redroot damage rating (100=total damage to plant; 0=no damage to plant); for pest or weed control at 62.5 g/ha: 62.5 g ai/ha, 100=total damage to plant, 0=no damage to plant, read-out: plant damage rating, Pigweed, Redroot; for pest or weed control at 250 g/ha: 250 g ai/ha
Outline: as §2

[10] = tested on: barnyardgrass (Echinochloa crus-galli); experiment: Test G Pre-Emergence Protocol; conditions: Echinochloa crus-galli, pre-emergence, 312 h, evaluated after 13 days; for pest or weed control at 15.625 g/ha: 15.625 g ai/ha, read-out: Barnyard grass damage rating (100=total damage to plant; 0=no damage to plant); for pest or weed control at 62.5 g/ha: 62.5 g ai/ha, 100=total damage to plant, 0=no damage to plant, read-out: plant damage rating, Barnyardgrass; for pest or weed control at 250 g/ha: 250 g ai/ha, read-out: Barnyardgrass damage rating (100=total damage to plant; 0=no damage to plant)
Outline: as §2

[11] = tested on: velvetleaf (Abutilon theophrasti); experiment: Test G Pre-Emergence Protocol; conditions: Abutilon theophrasti, pre-emergence, 312 h, evaluated after 13 days; for pest or weed control at 15.625 g/ha: 15.625 g ai/ha; for pest or weed control at 15.625 g/ha / pest or weed control at 250 g/ha: read-out: Velvetleaf damage rating (100=total damage to plant; 0=no damage to plant); for pest or weed control at 62.5 g/ha: 62.5 g ai/ha, 100=total damage to plant, 0=no damage to plant, read-out: plant damage rating, Velvetleaf; for pest or weed control at 250 g/ha: 250 g ai/ha
Outline: as §2

[12] = tested on: giant foxtail (Setaria faberi); experiment: Test G Pre-Emergence Protocol; conditions: Setaria faberi, pre-emergence, 312 h, evaluated after 13 days; for pest or weed control at 15.625 g/ha: 15.625 g ai/ha; for pest or weed control at 15.625 g/ha / pest or weed control at 250 g/ha: read-out: Foxtail, Giant damage rating (100=total damage to plant; 0=no damage to plant); for pest or weed control at 62.5 g/ha: 62.5 g ai/ha, 100=total damage to plant, 0=no damage to plant, read-out: plant damage rating, Foxtail, Giant; for pest or weed control at 250 g/ha: 250 g ai/ha
Outline: as §2

Work on `CN1C[C@H](c2ccc(C(F)(F)F)cc2)[C@@H](C(=O)Nc2ncc(F)cc2F)C1=O` (racemic) [Compound 1452] yielded a plant injury at 15.625 g/ha (corn (Zea mays) [1]) of 0%, a plant injury at 62.5 g/ha (corn (Zea mays) [1]) of 0% and a plant injury at 250 g/ha (corn (Zea mays) [1]) of 0%. For the same molecule, the pest or weed control at 15.625 g/ha [2] was 0%, the pest or weed control at 62.5 g/ha [2] was 10% and the pest or weed control at 250 g/ha [2] was 10%. For the same molecule, the pest or weed control at 15.625 g/ha [3] was 0%, the pest or weed control at 62.5 g/ha [3] was 0% and the pest or weed control at 250 g/ha [3] was 10%. It also gave a pest or weed control at 15.625 g/ha [4] of 0%, a pest or weed control at 62.5 g/ha [4] of 0% and a pest or weed control at 250 g/ha [4] of 0%. For the same molecule, the pest or weed control at 15.625 g/ha [5] was 0%, the pest or weed control at 62.5 g/ha [5] was 0% and the pest or weed control at 250 g/ha [5] was 10%. It also gave a pest or weed control at 15.625 g/ha [6] of 0%, a pest or weed control at 62.5 g/ha [6] of 0% and a pest or weed control at 250 g/ha [6] of 10%. It also gave a plant injury at 15.625 g/ha (corn (Zea mays) [7]) of 0%, a plant injury at 62.5 g/ha (corn (Zea mays) [7]) of 0% and a plant injury at 250 g/ha (corn (Zea mays) [7]) of 0%. The pest or weed control at 15.625 g/ha [8] was 0%, the pest or weed control at 62.5 g/ha [8] was 0% and the pest or weed control at 250 g/ha [8] was 0%. For the same molecule, the pest or weed control at 15.625 g/ha [9] was 0%, the pest or weed control at 62.5 g/ha [9] was 0% and the pest or weed control at 250 g/ha [9] was 0%. The pest or weed control at 15.625 g/ha [10] was 0%, the pest or weed control at 62.5 g/ha [10] was 0% and the pest or weed control at 250 g/ha [10] was 50%. For the same molecule, the pest or weed control at 15.625 g/ha [11] was 0%, the pest or weed control at 62.5 g/ha [11] was 0% and the pest or weed control at 250 g/ha [11] was 30%. The pest or weed control at 15.625 g/ha [12] was 0%, the pest or weed control at 62.5 g/ha [12] was 0% and the pest or weed control at 250 g/ha [12] was 60%.
Work on `C=Cc1ccc([C@H]2CN(C)C(=O)[C@@H]2C(=O)Nc2ccccc2F)cc1` (racemic) [Compound 1457] yielded a plant injury at 15.625 g/ha (corn (Zea mays) [1]) of 0%, a plant injury at 62.5 g/ha (corn (Zea mays) [1]) of 0% and a plant injury at 250 g/ha (corn (Zea mays) [1]) of 10%. It also gave a pest or weed control at 15.625 g/ha [2] of 0%, a pest or weed control at 62.5 g/ha [2] of 0% and a pest or weed control at 250 g/ha [2] of 20%. It also gave a pest or weed control at 15.625 g/ha [3] of 0%, a pest or weed control at 62.5 g/ha [3] of 0% and a pest or weed control at 250 g/ha [3] of 0%. The pest or weed control at 15.625 g/ha [4] was 0%, the pest or weed control at 62.5 g/ha [4] was 10% and the pest or weed control at 250 g/ha [4] was 10%. The pest or weed control at 15.625 g/ha [5] was 0%, the pest or weed control at 62.5 g/ha [5] was 0% and the pest or weed control at 250 g/ha [5] was 0%. The pest or weed control at 15.625 g/ha [6] was 0%, the pest or weed control at 62.5 g/ha [6] was 20% and the pest or weed control at 250 g/ha [6] was 50%. It also gave a plant injury at 15.625 g/ha (corn (Zea mays) [7]) of 0%, a plant injury at 62.5 g/ha (corn (Zea mays) [7]) of 0% and a plant injury at 250 g/ha (corn (Zea mays) [7]) of 0%. The pest or weed control at 15.625 g/ha [8] was 0%, the pest or weed control at 62.5 g/ha [8] was 0% and the pest or weed control at 250 g/ha [8] was 0%. The pest or weed control at 15.625 g/ha [9] was 0%, the pest or weed control at 62.5 g/ha [9] was 0% and the pest or weed control at 250 g/ha [9] was 0%. For the same molecule, the pest or weed control at 15.625 g/ha [10] was 0%, the pest or weed control at 62.5 g/ha [10] was 0% and the pest or weed control at 250 g/ha [10] was 50%. For the same molecule, the pest or weed control at 15.625 g/ha [11] was 0%, the pest or weed control at 62.5 g/ha [11] was 0% and the pest or weed control at 250 g/ha [11] was 0%. The pest or weed control at 15.625 g/ha [12] was 0%, the pest or weed control at 62.5 g/ha [12] was 20% and the pest or weed control at 250 g/ha [12] was 90%.
